Reference: patent US20220324925A1, “THERAPEUTIC PEPTIDES” (COHBAR, INC., priority 2019, published 2022)
Where no end group is shown, it is not given here. [ ]: non-standard residue; d: D form.

Assays:
[1] = system: 3T3-L1 adipocytes; assay: Free Fatty Acid Levels in cultured 3T3-L1 Adipocytes; conditions: for Free Fatty Acid Levels in 3T3-L1 Adipocytes Expressed as a Percent Isoproterenol Control, Percent of Control Value: test peptides 25 μM, 20-22 hours then isoproterenol (1 nM) 3 hours
Protocol: Following 12-15 days' differentiation, test peptides were added to a final concentration of 25 μM and incubated for 20-22 hours in Adipocyte Maintenance Medium. After 20-22 hours, isoproterenol (1 nM) was added to all wells except untreated controls and test peptides were replenished. Cells were incubated for a further 3 hours in Assay Buffer (Zen-Bio). Free fatty acid concentrations in the media were determined using a Free Fatty Acid Assay Kit (Zen-Bio) according to the manufacturer's instructions using a plate reader (540 nm). Absorbance values were corrected for untreated background and expressed relative to isoproterenol treated cells. Treatment with isoproterenol (1 nM) alone was used as the free fatty acid level stimulatory control. The relative standard deviation of the isoproterenol control was <10%.

[2] = system: MDA-MB-231 cells; assay: Caspase 3/7 Activity (Caspase-Glo 3/7 Assay) in MDA-MB-231 cells; type: cell-based, human; conditions: test peptides 10 μM, 18 hours, relative to DMSO control
Protocol: The effect of the peptides on cell death/survival can be assessed using a caspase-3 assay. […] MDA-MB-231 cells were grown in DMEM Medium supplemented with 10% FBS. […] Luminescence for each sample well on the plate was measured by Envision 2104 Multilabel Reader (PerkinElmer, Santa Clara, Calif.). Activity was calculated relative to DMSO control.

[3] = system: MDA-MB-231 cells; assay: Cell viability, MTS Assay in MDA-MB-231 Cells; conditions: for MTS Assay in MDA-MB-231 Cells, Percent of Control Activity: 72 hours, relative to DMSO control, concentration not given
[4] = system: MCF-7 cells; assay: Cell viability, MTS Assay in MCF-7 Cells; conditions: test peptides 10 μM, 72 hours, relative to DMSO control

## insulin [reference compound]
[1]; insulin 100 nM, positive control
  Free fatty acid levels, % of the isoproterenol control value: < 5%

## 8 (SVWKVAVQTFNCYYYVLQALIN) [compound 8]
[1]
  Free Fatty Acid Levels in 3T3-L1 Adipocytes Expressed as a Percent Isoproterenol Control, Percent of Control Value: 117%

## 18 (RCERYTSIPRSEMVNASIIFM) [compound 18]
[1]
  Free Fatty Acid Levels in 3T3-L1 Adipocytes Expressed as a Percent Isoproterenol Control, Percent of Control Value: 96%

## 20 (R[dA]ERYTSIPRSEMVN[dA]SI[dA]F) [compound 20]
[1]
  Free Fatty Acid Levels in 3T3-L1 Adipocytes Expressed as a Percent Isoproterenol Control, Percent of Control Value: 96%

## 12 (MVSVLESALGRTRV) [compound 12]
[1]
  Free Fatty Acid Levels in 3T3-L1 Adipocytes Expressed as a Percent Isoproterenol Control, Percent of Control Value: 124%
[2]
  Caspase 3/7 Activity in MDA-MB-231 Cells, Percent of Control Activity: 44%
[3]
  MTS Assay in MDA-MB-231 Cells, Percent of Control Activity: 74%
[4]
  MTS Assay in MCF-7 Cells, Percent of Control Activity: 32%

## 3 (PIVLELIPLKIFEIGPVFTL) [compound 3]
[1]
  Free Fatty Acid Levels in 3T3-L1 Adipocytes Expressed as a Percent Isoproterenol Control, Percent of Control Value: 68%

## 13 (VSVLESALGRTRV; not fully specified (residue 7)) [compound 13]
[1]
  Free Fatty Acid Levels in 3T3-L1 Adipocytes Expressed as a Percent Isoproterenol Control, Percent of Control Value: 123%

## 17 (MRCERYTSIPRSEMVNASIIFM) [compound 17]
[1]
  Free Fatty Acid Levels in 3T3-L1 Adipocytes Expressed as a Percent Isoproterenol Control, Percent of Control Value: 108%
[2]
  Caspase 3/7 Activity in MDA-MB-231 Cells, Percent of Control Activity: 51%
[3]
  MTS Assay in MDA-MB-231 Cells, Percent of Control Activity: 79%
[4]
  MTS Assay in MCF-7 Cells, Percent of Control Activity: 54%

## 5 (P[dA]VLELIPLKIFEI[dA]PVFT) [compound 5]
[1]
  Free Fatty Acid Levels in 3T3-L1 Adipocytes Expressed as a Percent Isoproterenol Control, Percent of Control Value: 84%

## 19 (RCERYTSIPRSEMVN[dA]SIIF) [compound 19]
[1]
  Free Fatty Acid Levels in 3T3-L1 Adipocytes Expressed as a Percent Isoproterenol Control, Percent of Control Value: 78%

## 7 (MSVWKVAVQTFNCYYYVLQALIN) [compound 7]
[1]
  Free Fatty Acid Levels in 3T3-L1 Adipocytes Expressed as a Percent Isoproterenol Control, Percent of Control Value: 128%
[2]
  Caspase 3/7 Activity in MDA-MB-231 Cells, Percent of Control Activity: 54%
[3]
  MTS Assay in MDA-MB-231 Cells, Percent of Control Activity: 83%
[4]
  MTS Assay in MCF-7 Cells, Percent of Control Activity: 64%

## 2 (PIVLELIPLKIFEIGPVFTL) [compound 2]
[1]
  Free Fatty Acid Levels in 3T3-L1 Adipocytes Expressed as a Percent Isoproterenol Control, Percent of Control Value: 92%
[2]
  Caspase 3/7 Activity in MDA-MB-231 Cells, Percent of Control Activity: 99%
[3]
  MTS Assay in MDA-MB-231 Cells, Percent of Control Activity: 78%
[4]
  MTS Assay in MCF-7 Cells, Percent of Control Activity: 71%

## 14 (VSVLES[dA]LGRTRV) [compound 14]
[1]
  Free Fatty Acid Levels in 3T3-L1 Adipocytes Expressed as a Percent Isoproterenol Control, Percent of Control Value: 94%

## CN[C@@H]1C[C@H]2O[C@@](C)([C@@H]1OC)n1c3ccccc3c3c4c(c5c6ccccc6n2c5c31)C(=O)NC4 [staurosporine, reference compound]
[3]; Staurosporine 10 uM, MDA-MB-231 cells, positive control
  Cell viability, % of the DMSO control value: 3%

## 9 (SVWKVAVQTFNCYYYVLQAL; not fully specified (residues 6, 19)) [compound 9]
[1]
  Free Fatty Acid Levels in 3T3-L1 Adipocytes Expressed as a Percent Isoproterenol Control, Percent of Control Value: 134%

## 10 (SVWKV[dA]VQTFNCYYYVLQ[dA]L) [compound 10]
[1]
  Free Fatty Acid Levels in 3T3-L1 Adipocytes Expressed as a Percent Isoproterenol Control, Percent of Control Value: 46%

## 15 (VSVLES[dA]LGRTR[dA]) [compound 15]
[1]
  Free Fatty Acid Levels in 3T3-L1 Adipocytes Expressed as a Percent Isoproterenol Control, Percent of Control Value: 126%
